Where two headings read alike, the source gives them in different places. One block for each compound: values may come before it.
Assays:
HEKa = experiment: In vitro transport assay: intracellular drug accumulation in HEKa; type: in vitro ADME, human; details: for intracellular accumulation / transport in HEKa (in words): kinase inhibitors 1 µM, 5 min
[1] = tested on: Human primary keratinocytes (HEKa); experiment: HEKa cell viability
TAK1 = target: T1, TAK1 (Homo sapiens, UniProt O43318); experiment: KiNativ in situ kinome profiling in HEKa, TAK1; type: binding; details: intact HEKa, 1 hr treatment, clinically-achievable concentration
T1 sequence (O43318 1-606): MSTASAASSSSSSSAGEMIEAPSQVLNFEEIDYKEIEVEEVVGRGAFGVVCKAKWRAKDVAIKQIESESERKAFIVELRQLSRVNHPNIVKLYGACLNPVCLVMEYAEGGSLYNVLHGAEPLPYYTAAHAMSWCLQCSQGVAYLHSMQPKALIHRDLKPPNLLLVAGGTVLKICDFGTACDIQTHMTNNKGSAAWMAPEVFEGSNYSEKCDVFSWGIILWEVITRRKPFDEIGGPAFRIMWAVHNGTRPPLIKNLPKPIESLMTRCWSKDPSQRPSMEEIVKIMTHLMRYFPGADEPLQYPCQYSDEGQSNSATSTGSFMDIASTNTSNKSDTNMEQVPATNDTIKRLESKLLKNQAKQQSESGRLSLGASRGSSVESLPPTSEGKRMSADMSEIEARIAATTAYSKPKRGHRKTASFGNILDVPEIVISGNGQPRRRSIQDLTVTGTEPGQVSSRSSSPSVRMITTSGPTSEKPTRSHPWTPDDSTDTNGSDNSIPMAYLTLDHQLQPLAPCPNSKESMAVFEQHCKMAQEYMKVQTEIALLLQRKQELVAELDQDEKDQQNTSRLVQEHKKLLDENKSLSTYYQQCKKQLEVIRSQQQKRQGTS

[2] = Plasma pharmacokinetic study of sorafenib; type: in vivo, C57BL6 mice; details: sorafenib 60 mg/kg oral, single agent, 0 to 6 hours
[3] = tested on: hair follicle growth in mice after depilation; experiment: Wax-depilation hair follicle regrowth study; type: in vivo, C57BL6 mice; details: twice daily oral
[4] = cited from earlier work
[5] = tested on: sorafenib uptake in HEKa (OATs; SLC22A); experiment: Inhibition of sorafenib uptake in HEKa by transporter inhibitors; type: cell-based, human; details: OAT inhibitors 100 µM, sorafenib 1 µM, 15 min
[6] = tested on: A549, 7860, HepG2 and CHRF288-11 cell lines; experiment: In vitro antitumor efficacy of sorafenib with or without probenecid; type: cell-based, human; details: probenecid 500 µM, sorafenib 0.1 – 100 µM, 72 hours
[7] = tested on: sorafenib accumulation in MPEK; experiment: Inhibition of sorafenib accumulation in MPEK by probenecid; type: cell-based, mouse; details: probenecid 100 µM, sorafenib 1 µM, 15 min

SMILES: CNC(=O)c1cc(Oc2ccc(NC(=O)Nc3ccc(Cl)c(C(F)(F)F)c3)cc2)cc[n+]1[O-] [sorafenib N-oxide]
intracellular accumulation / transport in HEKa (in words) (HEKa): temperature- and time-dependent transport | cell viability / cytotoxicity against HEKa (in words) ([1]; HEKa, 72 h): cytotoxicity against HEKa

SMILES: Cc1ccc(NC(=O)c2ccc(CN3CCN(C)CC3)cc2)cc1Nc1nccc(-c2cccnc2)n1 [imatinib]
cell viability / cytotoxicity against HEKa (in words) ([1]; HEKa, 72 h): not sensitive

SMILES: COc1cc(O)c2c(c1)/C=C/C[C@H](O)[C@H](O)C(=O)/C=C\C[C@H](C)OC2=O [(5z)-7-oxozeaenol]
cell viability / cytotoxicity against HEKa (in words) ([1]; HEKa, 72 h): dose-dependently reduced cell viability

affinity for TAK1 in HEKa by in situ kinome profiling (in words) (TAK1): high affinity
SMILES: CCN(CC)CCNC(=O)c1c(C)[nH]c(/C=C2\C(=O)Nc3ccc(F)cc32)c1C [sunitinib]
cell viability / cytotoxicity against HEKa (in words) [1]: induces cytotoxicity against HEKa

intracellular accumulation / transport in HEKa (in words) (HEKa): highly accumulates | Km (HEKa; read-out: Michaelis-Menten constant (Km) of uptake, HEKa uptake): 7 µM | area under the plasma concentration-time curve (mean ± SEM) [2]: 32500 ± 10900 ng·h/mL | hair growth one week after depilation ([3]; sorafenib 60 mg/kg): hair growth was delayed
SMILES: CNC(=O)c1cc(Oc2ccc(NC(=O)Nc3ccc(Cl)c(C(F)(F)F)c3)cc2)ccn1 [sorafenib]
maximum velocity (Vmax) of uptake (HEKa; HEKa uptake): 20,900 pmol/5min/mg protein | hair follicle histology (day 14, H&E) ([3]; sorafenib 60 mg/kg): reduced melanin and a gross disruption in morphology | hair growth and pigmentation at two weeks ([3]; sorafenib 60 mg/kg or imatinib 100 mg/kg): hair was less dense and lacked pigmentation | permeability (in words) [4]: poorly permeable

SMILES: C[N+]1(C)CCOC(O)(c2ccc(-c3ccc(C4(O)C[N+](C)(C)CCO4)cc3)cc2)C1.[Br-].[Br-] (centres unmarked) [hemicholinum-3]
sensitivity of sorafenib uptake to inhibitor [5]: sensitivity of sorafenib uptake

SMILES: CCCN(CCC)S(=O)(=O)c1ccc(C(=O)O)cc1 [probenecid]
influence of probenecid on cytotoxic effects of sorafenib [6]: did not antagonize the cytotoxic effects of sorafenib | sensitivity of sorafenib uptake to inhibitor [5]: sensitivity of sorafenib uptake | sensitivity of sorafenib accumulation to probenecid [7]: sensitive to probenecid

affinity for TAK1 in HEKa by in situ kinome profiling (in words) (TAK1): low affinity
SMILES: Cc1nc(Nc2ncc(C(=O)Nc3c(C)cccc3Cl)s2)cc(N2CCN(CCO)CC2)n1 [dasatinib]

SMILES: COc1cc(CC(=O)O)ccc1O [homovanillic acid]
sensitivity of sorafenib uptake to inhibitor [5]: sensitivity of sorafenib uptake

Source: article PMC4713045 (Cancer research, 2015)
